Tested on: 857933-349-R-J2-PDC complex spheroid viability
Experiment: Anticancer human tumor 857933-349-R-J2-PDC patient-derived colon adenocarcinoma cell line growth inhibition [POLQ]
Settings: for IC50: curve of first compound; for viability, T/C: stronger effect = lower value
How it was run: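 PDC + HUVEC + MSC complex spheroids; POLQ inhibitors ± partner drugs; top conc. at/near clinical Cmax, else 10 microM (SN-38 1 microM), half-log dilutions; 37 degrees C, 5% CO2.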

[1] = second compound 0.0316 µM, first compound 0.0316 µM
[2] = second compound 0.0316 µM, first compound 0.1 µM
[3] = second compound 0.0316 µM, first compound 0.316 µM
[4] = second compound 0.0316 µM, first compound 1 µM
[5] = second compound 0.0316 µM, first compound 3.16 µM
[6] = second compound 0.0316 µM, first compound 10 µM
[7] = second compound 0.1 µM, first compound 0.0316 µM
[8] = second compound 0.1 µM, first compound 0.1 µM
[9] = second compound 0.1 µM, first compound 0.316 µM
[10] = second compound 0.1 µM, first compound 1 µM
[11] = second compound 0.1 µM, first compound 3.16 µM
[12] = second compound 0.1 µM, first compound 10 µM
[13] = second compound 0.316 µM, first compound 0.0316 µM
[14] = second compound 0.316 µM, first compound 0.1 µM
[15] = second compound 0.316 µM, first compound 0.316 µM
[16] = second compound 0.316 µM, first compound 1 µM
[17] = second compound 0.316 µM, first compound 3.16 µM
[18] = second compound 0.316 µM, first compound 10 µM
[19] = second compound 1 µM, first compound 0.0316 µM
[20] = second compound 1 µM, first compound 0.1 µM
[21] = second compound 1 µM, first compound 0.316 µM
[22] = second compound 1 µM, first compound 1 µM
[23] = second compound 1 µM, first compound 3.16 µM
[24] = second compound 1 µM, first compound 10 µM
[25] = second compound 3.16 µM, first compound 0.0316 µM
[26] = second compound 3.16 µM, first compound 0.1 µM
[27] = second compound 3.16 µM, first compound 0.316 µM
[28] = second compound 3.16 µM, first compound 1 µM
[29] = second compound 3.16 µM, first compound 3.16 µM
[30] = second compound 3.16 µM, first compound 10 µM
[31] = second compound 10 µM, first compound 0.0316 µM
[32] = second compound 10 µM, first compound 0.1 µM
[33] = second compound 10 µM, first compound 0.316 µM
[34] = second compound 10 µM, first compound 1 µM
[35] = second compound 10 µM, first compound 3.16 µM
[36] = second compound 10 µM, first compound 10 µM
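Also: spheroids exposed to compounds for seven days before readout.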

## C=CC(=O)N1CCN(c2nc(=O)n(-c3c(C)ccnc3C(C)C)c3nc(-c4c(O)cccc4F)c(F)cc23)C(C)C1 (stereo not given) + COC1C(OC(N)=O)C(O)C(Oc2ccc3c(O)c(NC(=O)c4ccc(O)c(CC=C(C)C)c4)c(=O)oc3c2C)OC1(C)C
Second compound 0.0316 µM
  IC50: > 10 µM
Second compound 0.1 µM
  IC50: > 10 µM
Second compound 0.316 µM
  IC50: > 10 µM
Second compound 1 µM
  IC50: > 10 µM
Second compound 3.16 µM
  IC50: > 10 µM
Second compound 10 µM
  IC50: > 10 µM
[1]
  viability, T/C: 105%
[2]
  viability, T/C: 104%
[3]
  viability, T/C: 103%
[4]
  viability, T/C: 107%
[5]
  viability, T/C: 88.5%
[6]
  viability, T/C: 102%
[7]
  viability, T/C: 94.4%
[8]
  viability, T/C: 88.7%
[9]
  viability, T/C: 79.5%
[10]
  viability, T/C: 110%
[11]
  viability, T/C: 104%
[12]
  viability, T/C: 77%
[13]
  viability, T/C: 96.1%
[14]
  viability, T/C: 110%
[15]
  viability, T/C: 102%
[16]
  viability, T/C: 98.2%
[17]
  viability, T/C: 100%
[18]
  viability, T/C: 74.9%
[19]
  viability, T/C: 101%
[20]
  viability, T/C: 108%
[21]
  viability, T/C: 81.3%
[22]
  viability, T/C: 109%
[23]
  viability, T/C: 99.2%
[24]
  viability, T/C: 93.3%
[25]
  viability, T/C: 98.1%
[26]
  viability, T/C: 116%
[27]
  viability, T/C: 126%
[28]
  viability, T/C: 99.3%
[29]
  viability, T/C: 111%
[30]
  viability, T/C: 71.4%
[31]
  viability, T/C: 104%
[32]
  viability, T/C: 73%
[33]
  viability, T/C: 118%
[34]
  viability, T/C: 97.4%
[35]
  viability, T/C: 82.2%
[36]
  viability, T/C: 99.8%

## O=C(Nc1ccc(O)c(NS(=O)(=O)c2ccc(F)cc2)c1)c1ccc(-c2ccccc2)cc1 + COC1C(OC(N)=O)C(O)C(Oc2ccc3c(O)c(NC(=O)c4ccc(O)c(CC=C(C)C)c4)c(=O)oc3c2C)OC1(C)C
Second compound 0.0316 µM
  IC50: > 10 µM
Second compound 0.1 µM
  IC50: > 10 µM
Second compound 0.316 µM
  IC50: > 10 µM
Second compound 1 µM
  IC50: > 10 µM
Second compound 3.16 µM
  IC50: > 10 µM
Second compound 10 µM
  IC50: > 10 µM
[1]
  viability, T/C: 70.1%
[2]
  viability, T/C: 105%
[3]
  viability, T/C: 92.3%
[4]
  viability, T/C: 89.2%
[5]
  viability, T/C: 80.7%
[6]
  viability, T/C: 78.6%
[7]
  viability, T/C: 116%
[8]
  viability, T/C: 95.9%
[9]
  viability, T/C: 94.1%
[10]
  viability, T/C: 92.3%
[11]
  viability, T/C: 114%
[12]
  viability, T/C: 101%
[13]
  viability, T/C: 96%
[14]
  viability, T/C: 85.5%
[15]
  viability, T/C: 65.9%
[16]
  viability, T/C: 65.5%
[17]
  viability, T/C: 113%
[18]
  viability, T/C: 84.1%
[19]
  viability, T/C: 79.5%
[20]
  viability, T/C: 91.1%
[21]
  viability, T/C: 81.1%
[22]
  viability, T/C: 72.9%
[23]
  viability, T/C: 109%
[24]
  viability, T/C: 80.7%
[25]
  viability, T/C: 101%
[26]
  viability, T/C: 86.9%
[27]
  viability, T/C: 113%
[28]
  viability, T/C: 99.2%
[29]
  viability, T/C: 85.3%
[30]
  viability, T/C: 61.5%
[31]
  viability, T/C: 76.2%
[32]
  viability, T/C: 88.7%
[33]
  viability, T/C: 99.8%
[34]
  viability, T/C: 82.8%
[35]
  viability, T/C: 77.9%
[36]
  viability, T/C: 68.8%

## C=CC(=O)N1CCN(c2nc(=O)n(-c3c(C)ccnc3C(C)C)c3nc(-c4c(O)cccc4F)c(F)cc23)C(C)C1 (stereo not given) + Nc1ccc(C#CCN(C(=O)Cc2ncc(C(F)(F)F)cc2C(F)(F)F)c2ccc(F)cc2)nn1
Second compound 0.0316 µM
  IC50: > 10 µM
Second compound 0.1 µM
  IC50: > 10 µM
Second compound 0.316 µM
  IC50: > 10 µM
Second compound 1 µM
  IC50: > 10 µM
Second compound 3.16 µM
  IC50: > 10 µM
Second compound 10 µM
  IC50: > 10 µM
[1]
  viability, T/C: 90.6%
[2]
  viability, T/C: 101%
[3]
  viability, T/C: 113%
[4]
  viability, T/C: 98.6%
[5]
  viability, T/C: 113%
[6]
  viability, T/C: 87.6%
[7]
  viability, T/C: 99.3%
[8]
  viability, T/C: 90.7%
[9]
  viability, T/C: 105%
[10]
  viability, T/C: 100%
[11]
  viability, T/C: 98.9%
[12]
  viability, T/C: 95.5%
[13]
  viability, T/C: 107%
[14]
  viability, T/C: 98.5%
[15]
  viability, T/C: 98.3%
[16]
  viability, T/C: 112%
[17]
  viability, T/C: 93.1%
[18]
  viability, T/C: 83.5%
[19]
  viability, T/C: 111%
[20]
  viability, T/C: 107%
[21]
  viability, T/C: 97.6%
[22]
  viability, T/C: 100%
[23]
  viability, T/C: 110%
[24]
  viability, T/C: 97.2%
[25]
  viability, T/C: 103%
[26]
  viability, T/C: 88.8%
[27]
  viability, T/C: 96.4%
[28]
  viability, T/C: 101%
[29]
  viability, T/C: 108%
[30]
  viability, T/C: 98.5%
[31]
  viability, T/C: 81.2%
[32]
  viability, T/C: 101%
[33]
  viability, T/C: 98.9%
[34]
  viability, T/C: 92.6%
[35]
  viability, T/C: 112%
[36]
  viability, T/C: 95.3%

## COc1cccc2c1C(=O)c1c(O)c3c(c(O)c1C2=O)CC(O)(C(=O)CO)CC3OC1CC(N)C(O)C(C)O1 (stereo not given) + COC1C(OC(N)=O)C(O)C(Oc2ccc3c(O)c(NC(=O)c4ccc(O)c(CC=C(C)C)c4)c(=O)oc3c2C)OC1(C)C
Second compound 0.0316 µM
  IC50: 0.334 µM
Second compound 0.1 µM
  IC50: 0.216 µM
Second compound 0.316 µM
  IC50: 0.326 µM
Second compound 1 µM
  IC50: 0.226 µM
Second compound 3.16 µM
  IC50: 0.32 µM
Second compound 10 µM
  IC50: 0.263 µM
[1]
  viability, T/C: 73.1%
[2]
  viability, T/C: 80.2%
[3]
  viability, T/C: 51.4%
[4]
  viability, T/C: 8.39%
[5]
  viability, T/C: 0.35%
[6]
  viability, T/C: 0.47%
[7]
  viability, T/C: 64.2%
[8]
  viability, T/C: 70.5%
[9]
  viability, T/C: 41.3%
[10]
  viability, T/C: 5.48%
[11]
  viability, T/C: 0.39%
[12]
  viability, T/C: 0.29%
[13]
  viability, T/C: 79.8%
[14]
  viability, T/C: 76.2%
[15]
  viability, T/C: 51.3%
[16]
  viability, T/C: 8.79%
[17]
  viability, T/C: 0.37%
[18]
  viability, T/C: 0.44%
[19]
  viability, T/C: 70.9%
[20]
  viability, T/C: 58.8%
[21]
  viability, T/C: 45.6%
[22]
  viability, T/C: 6.1%
[23]
  viability, T/C: 0.31%
[24]
  viability, T/C: 0.43%
[25]
  viability, T/C: 68.3%
[26]
  viability, T/C: 68.2%
[27]
  viability, T/C: 50.3%
[28]
  viability, T/C: 9.54%
[29]
  viability, T/C: 0.51%
[30]
  viability, T/C: 0.49%
[31]
  viability, T/C: 75.1%
[32]
  viability, T/C: 80.3%
[33]
  viability, T/C: 43.5%
[34]
  viability, T/C: 10%
[35]
  viability, T/C: 0.39%
[36]
  viability, T/C: 0.49%

## CCc1cc2c(N3CCc4c(cc(Cn5ccnc5)cc4-c4cn(C)nc4C(F)(F)F)C3=O)ccnc2c(OC)n1 + COC1C(OC(N)=O)C(O)C(Oc2ccc3c(O)c(NC(=O)c4ccc(O)c(CC=C(C)C)c4)c(=O)oc3c2C)OC1(C)C
Second compound 0.0316 µM
  IC50: > 10 µM
Second compound 0.1 µM
  IC50: 7.52 µM
Second compound 0.316 µM
  IC50: > 10 µM
Second compound 1 µM
  IC50: > 10 µM
Second compound 3.16 µM
  IC50: > 10 µM
Second compound 10 µM
  IC50: > 10 µM
[1]
  viability, T/C: 88.9%
[2]
  viability, T/C: 93.4%
[3]
  viability, T/C: 106%
[4]
  viability, T/C: 75.6%
[5]
  viability, T/C: 66%
[6]
  viability, T/C: 51.8%
[7]
  viability, T/C: 103%
[8]
  viability, T/C: 93.1%
[9]
  viability, T/C: 80.2%
[10]
  viability, T/C: 84.2%
[11]
  viability, T/C: 61%
[12]
  viability, T/C: 44.6%
[13]
  viability, T/C: 90.4%
[14]
  viability, T/C: 104%
[15]
  viability, T/C: 73.4%
[16]
  viability, T/C: 71.5%
[17]
  viability, T/C: 65.4%
[18]
  viability, T/C: 58.4%
[19]
  viability, T/C: 90%
[20]
  viability, T/C: 79%
[21]
  viability, T/C: 74.9%
[22]
  viability, T/C: 69.8%
[23]
  viability, T/C: 61.3%
[24]
  viability, T/C: 59.5%
[25]
  viability, T/C: 96.3%
[26]
  viability, T/C: 98.2%
[27]
  viability, T/C: 82.7%
[28]
  viability, T/C: 73.6%
[29]
  viability, T/C: 75.3%
[30]
  viability, T/C: 58.2%
[31]
  viability, T/C: 99.6%
[32]
  viability, T/C: 94.5%
[33]
  viability, T/C: 75.6%
[34]
  viability, T/C: 92.3%
[35]
  viability, T/C: 59.7%
[36]
  viability, T/C: 62.8%

Source: PubChem BioAssay AID1963836 (Molecular Pharmacology Branch, DTP, NCI, 2024)
